According to ChEMBL document CHEMBL3885861, “Open TG-GATES”:
Where “and” joins values, the source holds several entries; their conditions need not be identical. Equal entries are not always repeated.

Species: Rattus norvegicus
Assay: Open TG-GATES - Regimen: Single
Type: toxicity, organism-based, Sprague-Dawley
Design: regimen Single, gender Male, age 6 weeks
Conditions: in vivo, po, 0 mg/kg, route gavage, dose level Control; for APTT / Bas / Eos / Fbg / Hb / Ht / Lym / MCH / MCHC / MCV / Mono / Neu / PT / Plat / RBC / Ret / WBC: tissue Blood; for KIDNEY_L / KIDNEY_R / KIDNEY_TOTAL: tissue Kidney; for LIVER: tissue Liver

Q: With `O=C1CN(/N=C/c2ccc([N+](=O)[O-])o2)C(=O)N1` [NITROFURANTOIN] as the compound, how does the TERMINAL_BW (3 h) read?
A: 220.5 g and 212 g

Q: What about the APTT (3 h) of the same compound?
A: 20.2 s and 16.2 s

Q: What about the Bas (3 h) of the same compound?
A: 0%

Q: And the Eos (3 h)?
A: 0.8% and 1.4%

Q: What about the Fbg (3 h) of the same compound?
A: 213.2 mg/dL and 223.8 mg/dL

Q: What about the Hb (3 h) of the same compound?
A: 13.3 g/dL and 12.9 g/dL

Q: And the Ht (3 h)?
A: 37.7% and 38.8%

Q: What about the Lym (3 h) of the same compound?
A: 79.2% and 74%

Q: And the MCH (3 h)?
A: 21.5 pg

Q: And the MCHC (3 h)?
A: 35.3% and 33.1%

Q: And the MCV (3 h)?
A: 60.7 fL and 64.8 fL

Q: What about the Mono (3 h) of the same compound?
A: 2% and 5%

Q: What about the Neu (3 h) of the same compound?
A: 16.4% and 20.2%

Q: What about the PT (3 h) of the same compound?
A: 12.9 s and 12 s

Q: What about the Plat (3 h) of the same compound?
A: 112.1 x10_4/uL and 122.4 x10_4/uL

Q: And the RBC (3 h)?
A: 620.6 x10_4/ul and 599.8 x10_4/ul

Q: What about the Ret (3 h) of the same compound?
A: 7.4% and 6.9%

Q: What about the WBC (3 h) of the same compound?
A: 98.8 x10_2/uL and 73.8 x10_2/uL

Q: And the KIDNEY_L (3 h)?
A: 1 g and 0.9 g

Q: And the KIDNEY_R (3 h)?
A: 1 g and 0.9 g

Q: And the KIDNEY_TOTAL (3 h)?
A: 2 g and 1.9 g

Q: And the LIVER (3 h)?
A: 10.4 g and 9.4 g

Q: And the A/G (3 h, tissue Plasma)?
A: 1.7 and 2.2

Q: What about the ALP (3 h, tissue Plasma) of the same compound?
A: 989 IU/L and 1656.4 IU/L

Q: And the ALT (3 h, tissue Plasma)?
A: 38.8 IU/L and 39.2 IU/L

Q: And the AST (3 h, tissue Plasma)?
A: 67.6 IU/L and 66.6 IU/L

Q: And the BUN (3 h, tissue Plasma)?
A: 11.6 mg/dL and 13 mg/dL

Q: What about the CRE (3 h, tissue Plasma) of the same compound?
A: 0.4 mg/dL and 0.3 mg/dL

Q: And the Ca (3 h, tissue Plasma)?
A: 10.8 mg/dL and 11.1 mg/dL

Q: And the Cl (3 h, tissue Plasma)?
A: 101.6 meq/L and 104 meq/L

Q: What about the GLC (3 h, tissue Plasma) of the same compound?
A: 190.2 mg/dL and 202 mg/dL

Q: What about the IP (3 h, tissue Plasma) of the same compound?
A: 8.4 mg/dL and 9.1 mg/dL

Q: And the K (3 h, tissue Plasma)?
A: 4 meq/L and 4.5 meq/L

Q: And the LDH (3 h, tissue Plasma)?
A: 180.2 IU/L and 74.6 IU/L

Q: And the Na (3 h, tissue Plasma)?
A: 140.6 meq/L and 139.2 meq/L

Q: What about the PL (3 h, tissue Plasma) of the same compound?
A: 135.4 mg/dL and 141.2 mg/dL

Q: And the RALB (3 h, tissue Plasma)?
A: 3.5 g/dL and 3.8 g/dL

Q: And the TC (3 h, tissue Plasma)?
A: 73.4 mg/dL and 84.8 mg/dL

Q: And the TG (3 h, tissue Plasma)?
A: 80.2 mg/dL and 53 mg/dL

Q: What about the TP (3 h, tissue Plasma) of the same compound?
A: 5.6 g/dL and 5.5 g/dL

Q: And the gamma-GTP (3 h, tissue Plasma)?
A: 1 IU/L

Q: What about the TERMINAL_BW (6 h) of the same compound?
A: 219 g and 212.6 g

Q: What about the APTT (6 h) of the same compound?
A: 19.5 s and 16.2 s

Q: What about the Bas (6 h) of the same compound?
A: 0%

Q: And the Eos (6 h)?
A: 1%

Q: What about the Fbg (6 h) of the same compound?
A: 221.8 mg/dL and 224 mg/dL

Q: And the Hb (6 h)?
A: 12.9 g/dL and 12.6 g/dL

Q: What about the Ht (6 h) of the same compound?
A: 36.6% and 38.1%

Q: And the Lym (6 h)?
A: 75.4% and 75.2%

Q: And the MCH (6 h)?
A: 21.8 pg and 21 pg

Q: What about the MCHC (6 h) of the same compound?
A: 35.4% and 33.1%

Q: And the MCV (6 h)?
A: 61.6 fL and 63.7 fL

Q: What about the Mono (6 h) of the same compound?
A: 3.4% and 6.6%

Q: What about the Neu (6 h) of the same compound?
A: 18.8% and 17.2%

Q: What about the PT (6 h) of the same compound?
A: 12.7 s and 12 s

Q: And the Plat (6 h)?
A: 108.3 x10_4/uL and 124 x10_4/uL

Q: What about the RBC (6 h) of the same compound?
A: 594.4 x10_4/ul and 598.8 x10_4/ul

Q: What about the Ret (6 h) of the same compound?
A: 7.9% and 7.7%

Q: And the WBC (6 h)?
A: 107.6 x10_2/uL and 78.5 x10_2/uL

Q: What about the KIDNEY_L (6 h) of the same compound?
A: 1 g and 0.9 g

Q: And the KIDNEY_R (6 h)?
A: 1 g

Q: What about the KIDNEY_TOTAL (6 h) of the same compound?
A: 2 g and 1.9 g

Q: And the LIVER (6 h)?
A: 9.8 g

Q: What about the A/G (6 h, tissue Plasma) of the same compound?
A: 1.5 and 2.3

Q: What about the ALP (6 h, tissue Plasma) of the same compound?
A: 798.6 IU/L and 1341.4 IU/L

Q: And the ALT (6 h, tissue Plasma)?
A: 34.4 IU/L and 35.2 IU/L

Q: And the AST (6 h, tissue Plasma)?
A: 61 IU/L and 65.8 IU/L

Q: What about the BUN (6 h, tissue Plasma) of the same compound?
A: 12 mg/dL and 14.8 mg/dL

Q: What about the CRE (6 h, tissue Plasma) of the same compound?
A: 0.4 mg/dL

Q: And the Ca (6 h, tissue Plasma)?
A: 10.8 mg/dL and 10.9 mg/dL

Q: And the Cl (6 h, tissue Plasma)?
A: 102.4 meq/L and 103.8 meq/L

Q: What about the GLC (6 h, tissue Plasma) of the same compound?
A: 185.8 mg/dL and 193.2 mg/dL

Q: What about the IP (6 h, tissue Plasma) of the same compound?
A: 8.6 mg/dL and 7.9 mg/dL

Q: And the K (6 h, tissue Plasma)?
A: 4.2 meq/L and 4.6 meq/L

Q: And the LDH (6 h, tissue Plasma)?
A: 177 IU/L and 74.4 IU/L

Q: What about the Na (6 h, tissue Plasma) of the same compound?
A: 140.4 meq/L and 137.2 meq/L

Q: And the PL (6 h, tissue Plasma)?
A: 137.2 mg/dL and 147 mg/dL

Q: And the RALB (6 h, tissue Plasma)?
A: 3.2 g/dL and 3.8 g/dL

Q: And the TC (6 h, tissue Plasma)?
A: 80 mg/dL and 86 mg/dL

Q: And the TG (6 h, tissue Plasma)?
A: 54 mg/dL and 118.6 mg/dL

Q: What about the TP (6 h, tissue Plasma) of the same compound?
A: 5.4 g/dL

Q: What about the gamma-GTP (6 h, tissue Plasma) of the same compound?
A: 1 IU/L and 0.4 IU/L

Q: What about the TERMINAL_BW (9 h) of the same compound?
A: 214.5 g and 212 g

Q: What about the APTT (9 h) of the same compound?
A: 19.4 s and 16 s

Q: And the Bas (9 h)?
A: 0%

Q: What about the Eos (9 h) of the same compound?
A: 1%

Q: And the Fbg (9 h)?
A: 216.6 mg/dL and 235.2 mg/dL

Q: What about the Hb (9 h) of the same compound?
A: 13.5 g/dL and 12.9 g/dL

Q: What about the Ht (9 h) of the same compound?
A: 38.4% and 39.4%

Q: And the Lym (9 h)?
A: 77.2% and 72%

Q: And the MCH (9 h)?
A: 21.4 pg and 21.3 pg

Q: And the MCHC (9 h)?
A: 35.3% and 32.7%

Q: And the MCV (9 h)?
A: 60.8 fL and 64.9 fL

Q: And the Mono (9 h)?
A: 2.8% and 8.8%

Q: What about the Neu (9 h) of the same compound?
A: 18.2% and 18.4%

Q: And the PT (9 h)?
A: 12.7 s and 11.8 s

Q: What about the Plat (9 h) of the same compound?
A: 113.7 x10_4/uL and 107.9 x10_4/uL

Q: And the RBC (9 h)?
A: 633.4 x10_4/ul and 606 x10_4/ul

Q: And the Ret (9 h)?
A: 7.1%

Q: What about the WBC (9 h) of the same compound?
A: 86.1 x10_2/uL and 82.1 x10_2/uL

Q: And the KIDNEY_L (9 h)?
A: 1 g and 0.9 g

Q: What about the KIDNEY_R (9 h) of the same compound?
A: 1 g and 0.9 g

Q: What about the KIDNEY_TOTAL (9 h) of the same compound?
A: 2 g and 1.8 g

Q: What about the LIVER (9 h) of the same compound?
A: 9.3 g and 10.4 g

Q: And the A/G (9 h, tissue Plasma)?
A: 1.6 and 2.2

Q: And the ALP (9 h, tissue Plasma)?
A: 901.6 IU/L and 1778 IU/L

Q: What about the ALT (9 h, tissue Plasma) of the same compound?
A: 34.4 IU/L and 40.2 IU/L

Q: And the AST (9 h, tissue Plasma)?
A: 62.2 IU/L and 71 IU/L

Q: What about the BUN (9 h, tissue Plasma) of the same compound?
A: 11.6 mg/dL and 14.6 mg/dL

Q: What about the CRE (9 h, tissue Plasma) of the same compound?
A: 0.4 mg/dL and 0.3 mg/dL

Q: And the Ca (9 h, tissue Plasma)?
A: 10.6 mg/dL and 11.3 mg/dL

Q: What about the Cl (9 h, tissue Plasma) of the same compound?
A: 102.2 meq/L and 104.4 meq/L

Q: What about the GLC (9 h, tissue Plasma) of the same compound?
A: 194 mg/dL and 183.2 mg/dL

Q: What about the IP (9 h, tissue Plasma) of the same compound?
A: 9.3 mg/dL and 7.7 mg/dL

Q: What about the K (9 h, tissue Plasma) of the same compound?
A: 4 meq/L and 4.9 meq/L

Q: And the LDH (9 h, tissue Plasma)?
A: 211.8 IU/L and 71.2 IU/L

Q: What about the Na (9 h, tissue Plasma) of the same compound?
A: 140.2 meq/L and 137.2 meq/L

Q: What about the PL (9 h, tissue Plasma) of the same compound?
A: 143.8 mg/dL and 168 mg/dL

Q: What about the RALB (9 h, tissue Plasma) of the same compound?
A: 3.3 g/dL and 3.9 g/dL

Q: What about the TBIL (9 h, tissue Plasma) of the same compound?
A: 0.1 mg/dL and 0.038 mg/dL

Q: What about the TC (9 h, tissue Plasma) of the same compound?
A: 78.8 mg/dL and 100.6 mg/dL

Q: And the TG (9 h, tissue Plasma)?
A: 77.2 mg/dL and 109.6 mg/dL

Q: What about the TP (9 h, tissue Plasma) of the same compound?
A: 5.3 g/dL and 5.6 g/dL

Q: And the gamma-GTP (9 h, tissue Plasma)?
A: 0.6 IU/L and 1 IU/L

Q: And the TERMINAL_BW (24 h)?
A: 232.8 g and 218.4 g

Q: What about the APTT (24 h) of the same compound?
A: 19 s and 15.6 s

Q: And the Bas (24 h)?
A: 0%

Q: And the Eos (24 h)?
A: 1%

Q: What about the Fbg (24 h) of the same compound?
A: 219.8 mg/dL and 239.4 mg/dL

Q: And the Hb (24 h)?
A: 13.6 g/dL and 13.4 g/dL

Q: And the Ht (24 h)?
A: 39.2% and 40.4%

Q: What about the Lym (24 h) of the same compound?
A: 75.2% and 73%

Q: What about the MCH (24 h) of the same compound?
A: 22 pg and 21.7 pg

Q: What about the MCHC (24 h) of the same compound?
A: 34.9% and 33.3%

Q: What about the MCV (24 h) of the same compound?
A: 63.2 fL and 65.2 fL

Q: What about the Mono (24 h) of the same compound?
A: 3% and 10.2%

Q: What about the Neu (24 h) of the same compound?
A: 19.6% and 15.6%

Q: And the PT (24 h)?
A: 12.5 s and 11.7 s

Q: What about the Plat (24 h) of the same compound?
A: 119.5 x10_4/uL and 120.8 x10_4/uL

Q: And the RBC (24 h)?
A: 620.4 x10_4/ul and 619 x10_4/ul

Q: And the Ret (24 h)?
A: 7% and 6.5%

Q: What about the WBC (24 h) of the same compound?
A: 95.9 x10_2/uL and 73.9 x10_2/uL

Q: What about the KIDNEY_L (24 h) of the same compound?
A: 1 g

Q: And the KIDNEY_R (24 h)?
A: 1.1 g and 1 g

Q: And the KIDNEY_TOTAL (24 h)?
A: 2.1 g and 2 g

Q: And the LIVER (24 h)?
A: 11.1 g and 10.1 g

Q: And the A/G (24 h, tissue Plasma)?
A: 1.4 and 2.4

Q: And the ALP (24 h, tissue Plasma)?
A: 1022.4 IU/L and 1561.4 IU/L
